From ChEMBL document CHEMBL3864179, “Development of 1H-Pyrazolo[3,4-b]pyridines as Metabotropic Glutamate Receptor 5 Positive Allosteric Modulators” (ACS Med Chem Lett, 2016) come the findings set out here.

The structures appear in SMILES notation.

The nature of data set [1]: Plasma concentration in C57Bl/6 mouse at 30 mg/kg, ip measured after 60 mins. Format: ADME, organism-based.
A short description of data set [2]: Ratio of drug level in brain to plasma in C57Bl/6 mouse at 30 mg/kg, ip. Format: ADME, organism-based. Conditions: read-out: BPR.

In data set [1], `N#Cc1c(-c2ccccc2)nc2[nH]nc(-c3ccc(Cl)c(C(F)(F)F)c3)c2c1C1CC1` registered a concentration at 1 h of 2800 nM. Besides, the Kp in data set [2] was found to be 0.5.
